Reference: patent publication US20260356814A1, “INDOLINE DERIVATIVES AS SEROTONERGIC AGENTS USEFUL FOR THE TREATMENT OF DISORDERS RELATED THERETO” (MINDSET PHARMA INC., priority 2022, published 2026)

Assays:
human 5-HT1A receptor = molecular target: T1, human 5-HT1A receptor (Homo sapiens, UniProt P08908); experiment: Human 5-HT1A: Functional FLIPR assay (agonist mode); assay type: cell-based; conditions: for RFU@10 μM: @10 μM (head), footnote: curve fitting with activation (%) @ 10 mM with RFU, RFU=Fmax−Fmin; for EC50: FLIPR calcium, agonist mode, HTR1A&Gα15-CHO cells, ND: not detected, read-out: h5-HT1A, EC50
T1 construct: expressed in transfected cells; host or cells: CHO (HTR1A&Ga15-CHO)
T1 sequence (P08908 1-422): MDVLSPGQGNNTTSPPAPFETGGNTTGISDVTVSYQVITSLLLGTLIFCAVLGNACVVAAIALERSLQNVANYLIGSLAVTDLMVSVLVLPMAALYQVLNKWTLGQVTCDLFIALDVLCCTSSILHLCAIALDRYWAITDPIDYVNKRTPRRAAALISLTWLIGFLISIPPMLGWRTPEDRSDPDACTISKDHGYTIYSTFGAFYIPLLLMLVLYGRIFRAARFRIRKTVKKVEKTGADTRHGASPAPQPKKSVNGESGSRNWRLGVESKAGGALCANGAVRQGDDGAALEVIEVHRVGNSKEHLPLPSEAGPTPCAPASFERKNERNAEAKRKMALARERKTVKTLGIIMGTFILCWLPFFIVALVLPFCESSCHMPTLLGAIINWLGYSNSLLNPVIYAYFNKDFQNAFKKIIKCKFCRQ
Procedure: The potential excitatory effects of compounds targeting on 5-hydroxytryptamine receptor 1A (5-HT1A) under agonist mode was assessed.
HTR1A&Ga15-CHO cells were cultured in DMEM/F12 medium containing 10% dialyzed FBS, 1x penicillin-streptomycin and 600 μg/mL Hygromycin B. The cells were passaged about three times a week, maintained between ~30% to ~90% confluence.
• 1. The cell culture medium (DMEM/F12 medium containing 10% dialyzed FBS, 1x penicillin-streptomycin and 600 μg/mL Hygromycin B), TrypLE™ Express and DPBS was warmed to R.T. in advance. • 2. The cell culture medium was removed from flask. Washed cells with DPBS. • 3. 1 mL TrypLE™ Express was added to the flask, mixed well by gentle shaking and cells were incubated at 37° C. for a few minutes. • 4. The cells were checked for morphological change under microscope, the digestion was stopped by adding 2 mL cell culture medium to the flask when most of cells turned to round. • 5. The cell suspension was transferred into a 15 mL centrifuge tube, and then centrifuged at 1,200 rpm for 5 minutes. • 6. The supernatant was removed. The cell pellet were resuspended with 2 mL cell culture medium. • 7. The cell density were counted using cell counter. Only cells with >85% viability were used for the assay. • 8. Cells were diluted to 4×10^5/mL with cell culture medium. • 9. 30 μL/well cell suspensions were added into a 384-well cell plate (The cell density was 12,000 cells/well). • 10. The cell plate was incubated overnight at 37° C., 5% (v/v) CO2.
• 1. On the day of experiments, culture medium was removed from the cell plate. • 2. 10 μL of assay buffer (20 mM HEPES, in 1×HBSS, pH 7.4) was added to each well of the cell plate. • 3. 2× dye solution was prepared following the manufacture's instruction of the FLIPR® Calcium 6 assay kit: • i. The dye was diluted with assay buffer. • ii. probenecid was added to the final concentration of 5 mM. • iii. Vortexed vigorously for 1-2 minutes, adjust pH to 7.4. • 4. 10 μL of 2×dye solution was added to each well of the cell plate. • 5. The cell plate was placed on plate shaker, followed by shaking at 600 rpm for 2 minutes. • 6. The plate was incubated at 37° C. for 2 hours followed by an additional 15-minute incubation at 25° C. 3.4 Prepare 3×compounds. • 1. Serotonin was prepared to the concentration of 10 mM with DMSO, 3-folds serial dilutions were performed with DMSO. • 2. Prepare the test compound to the concentration of 10 mM with DMSO, preform 3-folds serial dilutions with DMSO. • 3. The compounds were added to a 384-well compound source plate. • 4. 90 nL/well of serial diluted compounds were transferred from source plate to a 384-well compound plate by using an Echo. • 5. 30 μL/well of assay buffer was added to the compound plate. • 6. The plate was mixed on-plate shaker for 2 minutes. 3.5 FLIPR assay • 1. After the cells incubate with dye solution, the cell plate, compound plate containing 3×compounds and FLIPR tips were placed into FLIPR. • 2. 10 μL of 3×compounds were transferred from the compound plate to the cell plate by FLIPR. • 3. The plate was read for 160 sec with 1 sec interval to obtain the data of agonist mode.
• 1. The normalized fluorescence reading (RFU) was calculated as shown below, wherein Fmax and Fmin stand for maximum and minimum of calcium signal during defined time window:
RFU=Fmax−Fmin • 2. EC50 was calculated by fitting RFU against log of compound concentrations with Hill equation using XLfit.

Plasma stability, rat = assay type: in vitro ADME; conditions: 37° C.; for remaining at 0.5 h: 30 min, read-out: Remaining Percentage (%), 30 min; for remaining at 1 h: 60 min, read-out: Remaining Percentage (%), 60 min; for half-life: >255.85 if remaining at 60 min greater than 85%
Procedure: (§1) • a. […] The final concentration of organic solvents was 0.5%. The assay was performed in duplicated. • b.
(§2) All calculations were carried out using Microsoft Excel.

Plasma stability, mouse = assay type: in vitro ADME; conditions: 37° C.; for remaining at 0.5 h: 30 min, read-out: Remaining Percentage (%), 30 min; for remaining at 1 h: 60 min, read-out: Remaining Percentage (%), 60 min; for half-life: >255.85 if remaining at 60 min greater than 85%
Procedure: as §1, §2

Plasma stability, human = assay type: in vitro ADME; conditions: 37° C.; for remaining at 0.5 h: 30 min, read-out: Remaining Percentage (%), 30 min; for remaining at 1 h: 60 min, read-out: Remaining Percentage (%), 60 min; for half-life: >255.85 if remaining at 60 min greater than 85%
Procedure: as §1, §2

| Structure (SMILES) | RFU@10 μM (human 5-HT1A receptor) [RFU] | EC50 (human 5-HT1A receptor) [nM] | Remaining Percentage (%), 0 min (Plasma stability, rat) [%] | remaining at 0.5 h (Plasma stability, rat) [%] | remaining at 1 h (Plasma stability, rat) [%] | half-life (Plasma stability, rat) [min] | Remaining Percentage (%), 0 min (Plasma stability, mouse) [%] | remaining at 0.5 h (Plasma stability, mouse) [%] | remaining at 1 h (Plasma stability, mouse) [%] | half-life (Plasma stability, mouse) [min] | Remaining Percentage (%), 0 min (Plasma stability, human) [%] | remaining at 0.5 h (Plasma stability, human) [%] | remaining at 1 h (Plasma stability, human) [%] | half-life (Plasma stability, human) [min] |
| --- | --- | --- | --- | --- | --- | --- | --- | --- | --- | --- | --- | --- | --- | --- |
| [2H]C([2H])([2H])N1CCC[C@@H]1C([2H])([2H])N1CCc2ccccc21 [(R)-I-1, (R)-1-((1-(Methyl-d3)pyrrolidin-2-yl)methyl-d2) indoline] | 84 |  |  |  |  |  |  |  |  |  |  |  |  |  |
| [2H]C([2H])([2H])Oc1ccc2c(c1)N(C([2H])([2H])[C@H]1CCCN1C([2H])([2H])[2H])CC2 [(R)-I-28, (R)-6-(Methoxy-d3)-1-((1-(methyl-d3)pyrrolidin-2-yl)methyl-d2) indoline] | 1981 | 2340 | 100.00 | 97.9 | 94.7 | > 256 | 100.00 | 99.2 | 93.3 | > 256 | 100.00 | 95.1 | 94.2 | > 256 |
| COc1cc2c(cc1OC)N(C[C@H]1CCCN1C)CC2 [(R)-I-34, (R)-5,6-dimethoxy-1-((1-methylpyrrolidin-2-yl)methyl) indoline] | 155 |  |  |  |  |  |  |  |  |  |  |  |  |  |
| COc1cccc2c1N(C[C@H]1CCCN1C)CC2 [(R)-I-46, (R)-7-Methoxy-1-((1-methylpyrrolidin-2-yl)methyl) indoline] | 373 |  | 100.00 | 91.3 | 86.7 | > 256 | 100.00 | 103 | 92.4 | > 256 | 100.00 | 104 | 93 | > 256 |
| COc1cccc2c1CCN2C[C@H]1CCCN1C [(R)-I-47, (R)-4-Methoxy-1-((1-methylpyrrolidin-2-yl)methyl) indoline] | 70 |  |  |  |  |  |  |  |  |  |  |  |  |  |
| [2H]C([2H])([2H])N1CCC[C@@H]1C([2H])([2H])N1CCc2ccc(OC)cc21 [(R)-I-57, (R)-6-Methoxy-1-((1-(methyl-d3)pyrrolidin-2-yl)methyl-d2) indoline] | 2081 | 1260 | 100.00 | 92.5 | 89.7 | > 256 | 100.00 | 105 | 100 | > 256 | 100.00 | 108 | 113 | > 256 |
| COc1ccc2c(c1)N(C[C@H]1CCCN1C)CC2 [(R)-I-58, (R)-6-Methoxy-1-((1-methylpyrrolidin-2-yl)methyl) indoline] | 2444 | 2040 | 100.00 | 111 | 110 | > 256 | 100.00 | 97.4 | 105 | > 256 | 100.00 | 108 | 98.5 | > 256 |
| COc1ccc2c(c1)N(C[C@H]1CCCN1)CC2 [(R)-I-59, (R)-6-Methoxy-1-(pyrrolidin-2-ylmethyl) indoline] | 521 |  |  |  |  |  |  |  |  |  |  |  |  |  |
| [2H]C([2H])([2H])N(CCN1CCc2ccc(OC)cc21)C([2H])([2H])[2H] [Compound I-70, 2-(6-Methoxyindolin-1-yl)-N, N-bis(methyl-d3) ethan-1-amine] | 161 |  |  |  |  |  |  |  |  |  |  |  |  |  |
| [2H]C([2H])([2H])N(CCN1CCc2ccccc21)C([2H])([2H])[2H] [Compound I-71, 2-(Indolin-1-yl)-N,N-bis(methyl-d3) ethan-1-amine] | 145 |  |  |  |  |  |  |  |  |  |  |  |  |  |
